# Data published in patent US20240279214A1, “ALPHA4 BETA7 INEGRIN ANTAGONISTS AND USES THEREOF” (XinThera, Inc., priority 2022, published 2024).
# Biological target: T1, a4b7 integrin interaction with MadCAM-1 (Homo sapiens, UniProt P13612+P26010)
# T1 construct: capture of a4b7 integrin expressing cells, RPMI8866; endogenous in cells; host or cells: RPMI8866
# T1 sequence (P13612 34-1032): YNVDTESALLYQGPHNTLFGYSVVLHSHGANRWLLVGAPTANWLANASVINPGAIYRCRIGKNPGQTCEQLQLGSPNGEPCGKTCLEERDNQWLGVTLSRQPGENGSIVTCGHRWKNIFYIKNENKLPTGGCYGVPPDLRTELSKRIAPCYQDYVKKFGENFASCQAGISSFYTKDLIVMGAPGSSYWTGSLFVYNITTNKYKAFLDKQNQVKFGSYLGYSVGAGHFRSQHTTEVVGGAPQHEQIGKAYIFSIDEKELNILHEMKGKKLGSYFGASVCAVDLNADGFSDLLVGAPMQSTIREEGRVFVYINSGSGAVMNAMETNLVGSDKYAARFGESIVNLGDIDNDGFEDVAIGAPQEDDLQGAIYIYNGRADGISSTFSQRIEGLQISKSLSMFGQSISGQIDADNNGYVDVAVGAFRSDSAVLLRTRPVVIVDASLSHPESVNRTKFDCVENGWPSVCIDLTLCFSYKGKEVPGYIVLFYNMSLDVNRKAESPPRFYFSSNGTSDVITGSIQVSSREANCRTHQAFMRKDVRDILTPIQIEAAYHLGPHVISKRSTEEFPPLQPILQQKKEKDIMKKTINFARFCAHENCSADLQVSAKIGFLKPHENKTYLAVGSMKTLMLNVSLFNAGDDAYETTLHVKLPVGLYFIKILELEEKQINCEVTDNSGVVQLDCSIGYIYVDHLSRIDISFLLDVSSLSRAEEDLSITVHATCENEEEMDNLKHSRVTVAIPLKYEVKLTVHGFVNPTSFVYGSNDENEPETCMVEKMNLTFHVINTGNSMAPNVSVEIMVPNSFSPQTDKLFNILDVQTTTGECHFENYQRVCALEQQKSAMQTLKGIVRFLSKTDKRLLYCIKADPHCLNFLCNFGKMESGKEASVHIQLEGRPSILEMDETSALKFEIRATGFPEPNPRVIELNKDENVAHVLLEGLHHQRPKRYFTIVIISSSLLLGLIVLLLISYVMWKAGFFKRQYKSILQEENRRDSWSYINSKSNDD
# T1 sequence (P26010 20-798): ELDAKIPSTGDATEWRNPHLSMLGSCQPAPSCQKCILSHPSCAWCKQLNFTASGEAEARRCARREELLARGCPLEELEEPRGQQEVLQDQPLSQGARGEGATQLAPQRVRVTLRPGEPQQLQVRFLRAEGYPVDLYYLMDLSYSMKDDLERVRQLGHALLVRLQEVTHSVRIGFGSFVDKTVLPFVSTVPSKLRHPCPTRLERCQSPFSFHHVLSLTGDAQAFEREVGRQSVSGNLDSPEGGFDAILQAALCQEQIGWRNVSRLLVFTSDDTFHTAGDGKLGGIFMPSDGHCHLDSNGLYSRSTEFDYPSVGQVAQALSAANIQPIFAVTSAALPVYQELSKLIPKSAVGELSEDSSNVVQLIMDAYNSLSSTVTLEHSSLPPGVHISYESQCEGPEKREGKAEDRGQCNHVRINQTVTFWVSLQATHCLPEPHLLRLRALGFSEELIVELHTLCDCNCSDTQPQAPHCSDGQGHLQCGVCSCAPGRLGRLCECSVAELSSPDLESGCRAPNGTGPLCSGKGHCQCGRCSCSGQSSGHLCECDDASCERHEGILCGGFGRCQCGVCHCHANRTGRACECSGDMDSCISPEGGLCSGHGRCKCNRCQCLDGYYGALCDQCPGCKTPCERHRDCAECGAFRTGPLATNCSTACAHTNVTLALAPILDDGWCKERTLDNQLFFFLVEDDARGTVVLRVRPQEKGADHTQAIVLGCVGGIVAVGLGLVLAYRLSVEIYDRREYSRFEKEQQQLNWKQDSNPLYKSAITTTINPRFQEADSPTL
# Experiment: a4b7 Cell Capture Assay (RPMI8866 cells on MAdCAM-1 Fc coated plates)
# Type: cell-based
# Settings: 50% human serum, 1 mM MgCl2, 1 hour incubation, CellTiter-Glo luminescence, read-out: a4B7 cell capture assay RMPI8866-MadCAM EC50
# Procedure: The potency of inhibitors in preventing a4b7 integrin interaction with MadCAM-1 was measured by monitoring the capture of a4b7 integrin expressing cells, RPMI8866, on recombinant human MAdCAM-1 Fc chimera protein-coated plates. The protein was a fusion between human MAdCAM-1 (Met1-Gln333, Accession #AAY82472) and human IgG1 (Pro100-Lys330)] (R&D Systems, Catalog #6056-MC). 96-well plates (Thermofisher, Catalog #136102) were coated with the recombinant protein by dispensing 100 μL (1.0 μg/mL) per well. After a quick spin to settle down the coating solution using a plate centrifuge, plates were incubated overnight at 4° C. in a moisture chamber. On Day 2, the plates were washed with PBS using a Bluecatbio Blue®Washer (GentleSpin wash, 3 cycles, pressure=1, volume 150 uL). Blocking solution (1.0% BSA in PBS, Sigma, Catalog #A7979) was then added at 200 uL/well, and the plates were quickly spun to settle down blocking buffer and incubated in cell culture incubator at 37° C. and 5% CO2 for 1 hour. The plates were then washed with 0.1% BSA in PBS using a Bluecatbio Blue®Washer (GentleSpin wash, 3 cycles, pressure=1, volume 150 uL). RPMI8866 cells suspended in assay medium (1 mM MgCl2 25 mM HEPES and 50% human serum, Sigma, Catalog #H4522) at a density of 1.0×10^6 cells/mL were added at 100 uL/well. Each compound evaluated was prepared as a DMSO stock solution. Test compounds were evaluated with a 9-point serial dilution curve (1000, 333.3, 111.1, 55.6, 27.8, 13.9, 6.9, 2.3, and 0.77 nM)) and were added to the plates using a Tecan D.30e Digita dispenser, the dispensed stock is 100 nL and the final DMSO concentration is 0.1%. Potent compounds were re-evaluated at a new 9-point serial dilution curve (100, 33.3, 11.1, 5.6, 2.8, 1.4, 0.69, 0.23, and 0.08 nM). Each titration curves were performed in triplicate on the same plate, and most of compounds were retested in different dates multiple times. The plates were shaken at 300 rpm on orbital plate shaker for 3 minutes to mix the cells and compounds, quickly spun to settle the cells and solution, and incubated in cell culture incubator at 37° C. and 5% CO2. After 1 hour incubation, the unbound cells were washed away with RPMI1640 medium supplemented with 1 mM MgCl2 and 1% BSA) (wash buffer) using a Bluecatbio Blue®Washer (MagbeadsSpin wash, 1 cycle, pressure 1, volume=150 uL). After wash buffer removal, A mixture of wash buffer/CellTiter-Glo® Reagent (Pormega, catalog #G7573) at 1:1 (V/V) was added at volume of 100 uL to each well. The plates were placed in a chamber at 25° C. and incubated for 30 minutes. Luminescence was recorded using a Envision plate reader 2105 according to CellTiter-Glo protocol.
# The mean luminescence signals from negative control wells without MadCAM-1 coating and compound treatment (cells only) was defined as 100% binding inhibition, and the mean luminescence signals from positive control wells with MadCAM-1 coating but without compound treatment (MadCAM-1 and cells only) was defined as 0% binding inhibition. The luminescence signals from other compound treated wells were normalized in percentage scale accordingly. The normalized mean % inhibition data were plotted against logarithmic compound concentration in nanomolar and were fitted with 4-parameter logistic model to obtain IC50 for each compound.
row,Structure (SMILES),EC50 [nM]
1,"Cc1cc2cc(c1F)[C@H](CC(=O)O)NC(=O)[C@@H](n1cc(CCN3CC(F)C3)c(C(F)(F)F)cc1=O)c1cc(ccc1F)COc1ccc(F)cc1-2 (single isomer, unassigned) [Example 50]",> 100
2,"Cc1cccc2c1-c1cc(C3CC3)c(F)c(c1)[C@H](CC(=O)O)NC(=O)[C@@H](n1cc(CCN3CC(F)C3)c(C(F)(F)F)cc1=O)c1cc(ccc1F)O2 (relative stereo) [Example 24, [(14R*,17S)-20-cyclopropyl-12,19-difluoro-14-{5-[2-(3-fluoroazetidin-1-yl)ethyl]-2-oxo-4-(trifluoromethyl)pyridin-1-yl}-3-methyl-15-oxo-8-oxa-16-azatetracyclo[16.3.1.1^{9,13}.0^{2,7}]tricosa-1(22),2(7),3,5,9,11,13(23),18,20-nonaen-17-yl]acetic acid]",1.9
3,"Cc1cccc2c1-c1cc(c(F)c(C(F)(F)F)c1)[C@H](CC(=O)O)NC(=O)[C@@H](n1cc(CCN3CC(F)C3)c(C(F)(F)F)cc1=O)c1cc(ccc1F)CO2 (relative stereo) [Example 35, [(15R*,18S)-13,20-difluoro-15-{5-[2-(3-fluoroazetidin-1-yl)ethyl]-2-oxo-4-(trifluoromethyl)pyridin-1-yl}-3-methyl-16-oxo-21-(trifluoromethyl)-8-oxa-17-azatetracyclo[17.3.1.1^{10,14}.0^{2,7}]tetracosa-1(23),2(7),3,5,10,12,14(24),19,21-nonaen-18-yl]acetic acid]",7.7
4,"O=C(O)C[C@@H]1NC(=O)[C@@H](n2cc(CCN3CC(F)C3)c(C(F)(F)F)cc2=O)c2cccc(c2)Oc2cccc(Cl)c2-c2cc1c(F)c(C(F)(F)F)c2 (relative stereo) [Example 17, [(14R*,17S)-3-chloro-19-fluoro-14-{5-[2-(3-fluoroazetidin-1-yl)ethyl]-2-oxo-4-(trifluoromethyl)pyridin-1-yl}-15-oxo-20-(trifluoromethyl)-8-oxa-16-azatetracyclo[16.3.1.1^{9,13}.0^{2,7}]tricosa-1(22),2(7),3,5,9,11,13(23),18,20-nonaen-17-yl]acetic acid]",140
5,"Cc1ccc(C)c2c1Oc1cccc(c1)[C@H](n1cc(CCN3CC(F)C3)c(C(F)(F)F)cc1=O)C(=O)N[C@@H](CC(=O)O)c1cc-2cc(C(F)(F)F)c1F (relative stereo) [Example 12, [(14R*,17S)-19-fluoro-14-{5-[2-(3-fluoroazetidin-1-yl)ethyl]-2-oxo-4-(trifluoromethyl)pyridin-1-yl}-3,6-dimethyl-15-oxo-20-(trifluoromethyl)-8-oxa-16-azatetracyclo[16.3.1.1^{9,13}.0^{2,7}]tricosa-1(22),2(7),3,5,9,11,13(23),18,20-nonaen-17-yl]acetic acid]",970
6,"Cc1cccc2c1-c1cc(C(F)F)c(F)c(c1)[C@H](CC(=O)O)NC(=O)[C@@H](n1cc(CCN3CC(F)C3)c(C(F)(F)F)cc1=O)c1cc(ccc1F)O2 (relative stereo) [Example 37, [(14R*,17S)-20-(difluoromethyl)-12,19-difluoro-14-{5-[2-(3-fluoroazetidin-1-yl)ethyl]-2-oxo-4-(trifluoromethyl)pyridin-1-yl}-3-methyl-15-oxo-8-oxa-16-azatetracyclo[16.3.1.1^{9,13}.0^{2,7}]tricosa-1(22),2(7),3,5,9,11,13(23),18,20-nonaen-17-yl]acetic acid]",1.3
7,"Cc1cccc2c1-c1cc(c(F)c(C(F)(F)F)c1)[C@H](CC(=O)O)NC(=O)[C@@H](n1cc(CCN3CC(F)C3)c(C(F)(F)F)cc1=O)c1cccc(c1)O2 (relative stereo) [Example 6, rel-2-((5S,8S)-14-fluoro-5-(5-(2-(3-fluoroazetidin-1-yl)ethyl)-2-oxo-4-(trifluoromethyl)pyridin-1(2H)-yl)-26-methyl-6-oxo-15-(trifluoromethyl)-3-oxa-7-aza-1,4(1,3),2(1,2)-tribenzenacyclooctaphane-8-yl)acetic acid]",230
8,"Cc1cc2cc(c1F)[C@H](CC(=O)O)NC(=O)[C@@H](n1cc(CCN(C)C)c(C(F)(F)F)cc1=O)c1cccc(c1)Oc1cccc(C)c1-2 (relative stereo) [Example 23, [(14R*,17S)-14-{5-[2-(dimethylamino)ethyl]-2-oxo-4-(trifluoromethyl)pyridin-1-yl}-19-fluoro-3,20-dimethyl-15-oxo-8-oxa-16-azatetracyclo[16.3.1.1^{9,13}.0^{2,7}]tricosa-1(22),2(7),3,5,9,11,13(23),18,20-nonaen-17-yl]acetic acid]",2.3
9,"Cc1cc2cc(c1F)[C@H](CC(=O)O)NC(=O)[C@@H](n1cc(CCN3CC(F)C3)c(C(F)(F)F)cc1=O)c1cc(ccc1F)COc1ccc(F)c(C)c1-2 (single isomer, unassigned) [Example 61]",42
10,"Cc1cc2cc(c1F)[C@H](CC(=O)O)NC(=O)[C@@H](n1cc(CCN3CC(F)C3)c(C(F)(F)F)cc1=O)c1cc(ccc1F)Oc1cc(C#N)cc(C)c1-2 (single isomer, unassigned) [Example 46]",1.6
